Measurements from PubChem BioAssay AID1982 (Sanford-Burnham Center for Chemical Genomics, 2009).
Active and inactive are the calls of the source. How the calls were made is not given here.

Experiments:
Test in all cases: kinase panel binding selectivity, selectivity assay, biochemical, KINOMEscan (AID 1982)
[1] = biological target: Inhibitor of nuclear factor kappa-B kinase subunit beta (Homo sapiens) (UniProt O14920); settings: KINOMEscan 353-kinase binding panel, qPCR; IKK-beta; at 10 µM; active compounds read low
TTK = settings: KINOMEscan 353-kinase binding panel, qPCR, at 10 µM, active compounds read low
[2] = biological target: Maternal embryonic leucine zipper kinase (Homo sapiens) (UniProt Q14680); settings: KINOMEscan 353-kinase binding panel, qPCR; MELK; at 10 µM; active compounds read low
[3] = biological target: Casein kinase II subunit alpha (Homo sapiens) (UniProt P68400); settings: KINOMEscan 353-kinase binding panel, qPCR; CSNK2A1; at 10 µM; active compounds read low
TGFBR2 = settings: KINOMEscan 353-kinase binding panel, qPCR, at 10 µM, active compounds read low
[4] = biological target: Misshapen-like kinase 1 (Homo sapiens) (UniProt Q8N4C8); settings: KINOMEscan 353-kinase binding panel, qPCR; MINK; at 10 µM; active compounds read low
MAP4K1 = settings: KINOMEscan 353-kinase binding panel, qPCR, at 10 µM, active compounds read low
JAK1(Kin.Dom.2) = settings: KINOMEscan 353-kinase binding panel, qPCR, at 10 µM, active compounds read low
PKN1 = settings: KINOMEscan 353-kinase binding panel, qPCR, at 10 µM, active compounds read low
[5] = biological target: Casein kinase I isoform delta (Homo sapiens) (UniProt P48730); settings: KINOMEscan 353-kinase binding panel, qPCR; CSNK1D; at 10 µM; active compounds read low
Sequence of Casein kinase I isoform delta (Homo sapiens) (P48730 whole entry, looked up, canonical isoform): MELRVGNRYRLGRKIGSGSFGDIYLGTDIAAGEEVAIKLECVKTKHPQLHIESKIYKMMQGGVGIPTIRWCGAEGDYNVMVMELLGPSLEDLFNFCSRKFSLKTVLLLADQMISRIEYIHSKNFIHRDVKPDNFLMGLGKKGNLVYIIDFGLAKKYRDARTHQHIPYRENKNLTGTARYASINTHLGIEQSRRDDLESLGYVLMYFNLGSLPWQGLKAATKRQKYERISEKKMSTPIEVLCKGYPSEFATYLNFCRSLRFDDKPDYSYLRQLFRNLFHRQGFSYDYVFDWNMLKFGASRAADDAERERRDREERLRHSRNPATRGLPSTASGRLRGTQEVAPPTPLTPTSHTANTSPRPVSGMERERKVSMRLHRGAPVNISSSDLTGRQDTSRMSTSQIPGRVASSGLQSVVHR

Sequence of Inhibitor of nuclear factor kappa-B kinase subunit beta (Homo sapiens) (O14920 whole entry, looked up): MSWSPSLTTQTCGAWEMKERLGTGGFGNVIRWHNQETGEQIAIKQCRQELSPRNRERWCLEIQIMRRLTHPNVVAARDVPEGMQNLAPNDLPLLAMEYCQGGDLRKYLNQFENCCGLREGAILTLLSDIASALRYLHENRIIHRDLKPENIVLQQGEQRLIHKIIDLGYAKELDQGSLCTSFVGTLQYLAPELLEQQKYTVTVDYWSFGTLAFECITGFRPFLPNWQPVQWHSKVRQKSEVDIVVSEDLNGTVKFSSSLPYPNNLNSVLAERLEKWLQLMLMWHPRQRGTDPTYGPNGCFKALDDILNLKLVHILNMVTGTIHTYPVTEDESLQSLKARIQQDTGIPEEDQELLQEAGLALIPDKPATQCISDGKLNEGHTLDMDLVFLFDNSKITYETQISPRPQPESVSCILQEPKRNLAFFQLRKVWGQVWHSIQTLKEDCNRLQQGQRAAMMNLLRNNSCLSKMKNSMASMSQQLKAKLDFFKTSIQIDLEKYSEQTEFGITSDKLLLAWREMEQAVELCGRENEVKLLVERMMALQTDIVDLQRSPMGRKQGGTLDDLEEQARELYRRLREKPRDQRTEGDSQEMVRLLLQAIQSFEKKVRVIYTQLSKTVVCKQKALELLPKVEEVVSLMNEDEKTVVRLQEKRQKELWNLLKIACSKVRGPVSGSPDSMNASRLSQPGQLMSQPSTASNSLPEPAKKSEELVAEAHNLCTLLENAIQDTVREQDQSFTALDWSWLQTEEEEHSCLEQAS
Sequence of Maternal embryonic leucine zipper kinase (Homo sapiens) (Q14680 whole entry, looked up): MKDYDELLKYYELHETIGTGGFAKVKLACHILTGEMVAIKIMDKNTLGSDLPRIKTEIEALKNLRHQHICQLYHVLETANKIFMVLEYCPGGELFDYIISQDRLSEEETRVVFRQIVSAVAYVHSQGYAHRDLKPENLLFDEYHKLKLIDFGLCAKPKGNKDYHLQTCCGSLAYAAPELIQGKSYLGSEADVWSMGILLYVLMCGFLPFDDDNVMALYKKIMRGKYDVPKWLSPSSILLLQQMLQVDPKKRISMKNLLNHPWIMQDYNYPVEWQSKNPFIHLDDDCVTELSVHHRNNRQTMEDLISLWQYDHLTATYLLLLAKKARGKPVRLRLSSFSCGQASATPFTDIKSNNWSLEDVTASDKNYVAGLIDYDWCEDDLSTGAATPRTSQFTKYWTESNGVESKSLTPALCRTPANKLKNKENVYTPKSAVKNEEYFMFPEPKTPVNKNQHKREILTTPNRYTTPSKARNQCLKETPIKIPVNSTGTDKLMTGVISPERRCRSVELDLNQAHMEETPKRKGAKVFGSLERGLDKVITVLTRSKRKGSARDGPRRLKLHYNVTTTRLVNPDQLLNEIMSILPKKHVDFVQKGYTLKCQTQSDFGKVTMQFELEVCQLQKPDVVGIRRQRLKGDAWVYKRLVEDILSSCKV
Sequence of Casein kinase II subunit alpha (Homo sapiens) (P68400 whole entry, looked up): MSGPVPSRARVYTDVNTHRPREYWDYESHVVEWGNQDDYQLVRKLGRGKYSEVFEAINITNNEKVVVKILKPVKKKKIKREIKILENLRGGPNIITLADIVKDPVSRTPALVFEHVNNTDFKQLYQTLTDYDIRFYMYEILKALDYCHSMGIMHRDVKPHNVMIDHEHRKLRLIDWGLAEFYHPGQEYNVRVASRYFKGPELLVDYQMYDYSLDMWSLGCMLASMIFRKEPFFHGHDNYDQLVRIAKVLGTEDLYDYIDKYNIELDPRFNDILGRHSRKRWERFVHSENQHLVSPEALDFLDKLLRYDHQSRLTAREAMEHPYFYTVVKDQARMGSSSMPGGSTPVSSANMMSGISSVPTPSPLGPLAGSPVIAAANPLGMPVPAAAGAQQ
Sequence of Misshapen-like kinase 1 (Homo sapiens) (Q8N4C8 whole entry, looked up): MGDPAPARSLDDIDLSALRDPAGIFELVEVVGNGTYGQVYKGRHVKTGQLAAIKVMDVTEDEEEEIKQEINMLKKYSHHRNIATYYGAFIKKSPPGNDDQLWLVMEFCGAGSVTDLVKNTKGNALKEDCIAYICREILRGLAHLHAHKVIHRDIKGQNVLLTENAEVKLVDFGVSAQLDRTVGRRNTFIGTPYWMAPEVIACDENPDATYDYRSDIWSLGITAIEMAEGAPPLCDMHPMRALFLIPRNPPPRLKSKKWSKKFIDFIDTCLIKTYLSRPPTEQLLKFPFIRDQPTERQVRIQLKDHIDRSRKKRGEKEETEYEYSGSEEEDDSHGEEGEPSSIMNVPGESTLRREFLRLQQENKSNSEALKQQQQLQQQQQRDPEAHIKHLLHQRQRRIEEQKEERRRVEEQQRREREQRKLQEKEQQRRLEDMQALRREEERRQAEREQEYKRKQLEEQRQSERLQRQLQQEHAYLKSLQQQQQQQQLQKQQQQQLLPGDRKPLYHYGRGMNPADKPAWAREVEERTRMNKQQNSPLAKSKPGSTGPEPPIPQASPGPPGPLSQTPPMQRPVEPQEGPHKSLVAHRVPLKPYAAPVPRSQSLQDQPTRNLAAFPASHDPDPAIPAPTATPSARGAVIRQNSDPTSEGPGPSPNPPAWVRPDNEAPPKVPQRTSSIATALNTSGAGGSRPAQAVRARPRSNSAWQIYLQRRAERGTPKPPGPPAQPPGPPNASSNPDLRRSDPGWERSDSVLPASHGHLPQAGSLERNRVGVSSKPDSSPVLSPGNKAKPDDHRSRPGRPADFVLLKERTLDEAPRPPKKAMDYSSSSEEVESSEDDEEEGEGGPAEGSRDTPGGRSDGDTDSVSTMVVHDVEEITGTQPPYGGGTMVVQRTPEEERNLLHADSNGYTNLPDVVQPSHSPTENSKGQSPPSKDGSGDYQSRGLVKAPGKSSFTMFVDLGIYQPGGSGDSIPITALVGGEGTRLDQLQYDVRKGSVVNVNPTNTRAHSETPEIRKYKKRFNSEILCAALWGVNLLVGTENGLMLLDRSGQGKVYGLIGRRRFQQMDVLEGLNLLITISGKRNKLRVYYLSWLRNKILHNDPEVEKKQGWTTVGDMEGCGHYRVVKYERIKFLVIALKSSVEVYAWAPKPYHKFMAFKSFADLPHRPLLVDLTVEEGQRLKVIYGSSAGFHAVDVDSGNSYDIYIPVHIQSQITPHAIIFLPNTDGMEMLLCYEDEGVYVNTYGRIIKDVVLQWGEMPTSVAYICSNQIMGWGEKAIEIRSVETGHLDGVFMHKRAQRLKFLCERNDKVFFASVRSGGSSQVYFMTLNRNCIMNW

percent of control binding [1]: 78% (inactive)
percent of control binding (TTK): 100% (inactive)
percent of control binding [2]: 93% (inactive)
percent of control binding [3]: 81% (inactive)
percent of control binding (TGFBR2): 100% (inactive)
percent of control binding [4]: 100% (inactive)
percent of control binding (MAP4K1): 100% (inactive)
percent of control binding (JAK1(Kin.Dom.2)): 90% (inactive)
percent of control binding (PKN1): 100% (inactive)
percent of control binding [5]: 99% (inactive)
Structure (SMILES): Cc1cc2nc(NCCCO)n(CC(=O)c3cc(C(C)(C)C)c(O)c(C(C)(C)C)c3)c2cc1C
